The assay relates to NCI-H460. Kind of assay: Cytotoxicity against human H460 cells. Type of assay: functional, cell-based.

pIC50: −log10 of the molar value.

`C=C1[C@H]2C[C@@]3(OC(=O)c4ccccc4)C(=O)[C@@H]4[C@]5(OC(C)=O)CO[C@@H]5C[C@H](O)[C@@]4(C)[C@H](O)[C@@](O)(O2)[C@@H]1C3(C)C` showed a pIC50 of 4.29.

As to `C=C1[C@H]2C[C@@]3(OC(=O)c4ccccc4)C(=O)[C@@H]4[C@](O)(COC(C)=O)[C@@H](O)C[C@H](O)[C@@]4(C)[C@H](O)[C@@](O)(O2)[C@@H]1C3(C)C`, the pIC50 is 4.02. The figure for `CC(=O)O[C@@]12CO[C@@H]1C[C@@H](O)[C@@]1(C)C(=O)C(=O)C3=C(C)[C@@H](O)C[C@@](O)([C@@H](OC(=O)c4ccccc4)[C@H]21)C3(C)C` is 4.22; for `CC(=O)O[C@@]12CO[C@@H]1C[C@H](O)[C@@]1(C)C(=O)[C@H](O)C3=C(C)[C@@H](O)C[C@@](O)([C@@H](OC(=O)c4ccccc4)[C@H]21)C3(C)C` it is 5.51.

The record behind these values is ChEMBL document CHEMBL1154376, “Anomalous microbial transformations on the taxane ring of 10-DAB by a strain of the fungus Curvularia lunata: transbenzoylation, transacetylation, and opening of the oxetane ring” (J Nat Prod, 2009).
